Measurements: patent US20240101576A1, “HETEROCYCLIC INHIBITORS OF EGFR AND/OR HER2, FOR USE IN THE TREATMENT OF CANCER” (Scorpion Therapeutics, Inc., priority 2020, published 2024)

Tests used:
Format in all cases: cell-based
EGFR L858R (Ba/F3 cells) [1] = target: T1, EGFR L858R (Ba/F3 cells) (Homo sapiens, UniProt P00533, L858R); assay: Inhibitor activity on EGFR phosphorylation (pEGFR AlphaLISA, 2 h), Ba/F3 EGFR L858R
T1 construct: expressed in transfected cells; host or cells: Ba/F3 (murine pro-B cells), retroviral transduction, puromycin selection, IL3-independent pool
T1 sequence (P00533 25-1210 L858R): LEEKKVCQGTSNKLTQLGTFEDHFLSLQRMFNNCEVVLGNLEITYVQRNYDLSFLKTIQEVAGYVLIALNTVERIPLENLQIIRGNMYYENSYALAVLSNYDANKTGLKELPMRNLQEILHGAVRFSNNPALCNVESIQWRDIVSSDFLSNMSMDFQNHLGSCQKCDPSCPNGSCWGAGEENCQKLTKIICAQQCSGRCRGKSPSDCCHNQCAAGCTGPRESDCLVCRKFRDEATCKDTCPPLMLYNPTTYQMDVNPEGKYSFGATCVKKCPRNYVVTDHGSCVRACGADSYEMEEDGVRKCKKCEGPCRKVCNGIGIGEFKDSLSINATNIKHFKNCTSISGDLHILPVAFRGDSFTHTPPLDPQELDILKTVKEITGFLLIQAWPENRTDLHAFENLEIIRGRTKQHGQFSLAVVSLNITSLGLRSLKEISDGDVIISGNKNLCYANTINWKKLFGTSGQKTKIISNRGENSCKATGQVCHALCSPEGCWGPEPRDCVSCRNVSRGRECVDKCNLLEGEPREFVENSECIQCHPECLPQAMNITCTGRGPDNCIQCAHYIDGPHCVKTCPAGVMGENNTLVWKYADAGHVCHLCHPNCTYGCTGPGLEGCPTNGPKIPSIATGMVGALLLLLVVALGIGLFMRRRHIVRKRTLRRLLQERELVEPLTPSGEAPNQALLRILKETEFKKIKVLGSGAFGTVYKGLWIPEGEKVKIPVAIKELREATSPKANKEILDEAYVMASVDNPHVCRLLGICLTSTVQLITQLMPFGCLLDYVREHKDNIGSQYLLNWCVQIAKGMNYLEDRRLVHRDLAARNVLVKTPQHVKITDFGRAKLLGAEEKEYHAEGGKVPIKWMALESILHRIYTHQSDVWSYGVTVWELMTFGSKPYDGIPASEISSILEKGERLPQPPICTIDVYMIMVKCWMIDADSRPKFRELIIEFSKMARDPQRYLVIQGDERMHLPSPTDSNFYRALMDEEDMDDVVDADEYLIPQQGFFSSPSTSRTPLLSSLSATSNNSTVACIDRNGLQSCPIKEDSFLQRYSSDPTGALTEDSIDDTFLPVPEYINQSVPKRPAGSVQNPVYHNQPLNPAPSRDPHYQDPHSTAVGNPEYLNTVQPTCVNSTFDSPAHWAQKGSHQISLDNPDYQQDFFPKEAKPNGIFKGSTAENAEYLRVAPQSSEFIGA
Excerpt: (§1) Example B. Inhibitor Activity on EGFR phosphorylation (pEGFR)
(§2) EGFR mutant Ba/F3 cells were generated by transduction with retrovirus containing vectors expressing EGFR L858R, EGFR exon 19del, EGFR L858R/C797S, EGFR exon 20 NPG Ins D770_N771, EGFR exon 20 ASV Ins V769_D770, or EGFR exon 20 SVD Ins D770_N771 genes along with a puromycin selection marker. Transduced cells are selected with puromycin for 7 days and are then be transferred into culture media without Interleukin 3 (IL3). Surviving cells are confirmed to express EGFR by Western blot and maintained as a pool. CUTO14 cells were obtained from Dr. Robert C. Doebele at the University of Colorado. The IC50 date are included in Table 6 and Table 7.
(§3) 1.1 Cells are harvested from flask into cell culture medium and the cell number counted.
(§4) 1.2 Cells are diluted with culture medium to the desired density and 40 μL of cell suspension is added into each well of 384-well cell culture plate and the seeding density is 50K cells/well (Ba/F3) or 12.5K cells/well (CUTO14).
(§5) 2 Compound Preparation and Treatment
(§6) 2.1 Test compounds are dissolved to 10 mM in a DMSO stock solution. 45 μL of stock solution is transferred to a 384 polypropylene plate (pp-plate). Perform 3-fold, 10-point dilution via transferring 15 μL compound into 30 μL DMSO using a TECAN (EVO200) liquid handler.
(§7) 2.2 Spin plates at room temperature at 1,000 RPM for 1 minute.
(§8) 2.3 Transfer 5 nL of diluted compound from compound source plate into the cell plate.
(§9) 2.4 After compound treatment for 2 hours, perform pEGFR detection by AlphaLISA for compound treatment plates as described in “Detection” section.
(§10) 3 Detection by pEGFR AlphaLISA (Perkin-Elmer)
(§11) 3.1 Plates are removed from incubators and equilibrated at room temperature for 10 minutes, and media was removed
(§12) 3.2 10 μL of lysis buffer is added and plates shaken at 600 rpm for 1 hr.
(§13) 3.3 Prepare acceptor mix just before use and dispense 5 μL of acceptor mix to all the wells. Shake 350 rpm for Ihr in the dark
(§14) 3.4 Prepare donor mix under low light conditions prior to use. Dispense 5 μL of donor mix to all the wells. Mix well on the shaker, seal and wrap in aluminum foil and incubate 1.5 hrs at room temperature in the dark
(§15) 3.5 Transfer 18.5 μL mixture to OptiPlate 384, and read using an Envision. The IC50 date were included in Table 6 and Table 7.

EGFR L858R (Ba/F3 cells) [2] = target: T1, EGFR L858R (Ba/F3 cells); assay: Inhibitor activity on EGFR-dependent cell growth (CellTiter-Glo, 72 h), Ba/F3 EGFR L858R; details: read-out: BaF3 L858R IC50
How it was run: (§16)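 Compounds, serially diluted 3-fold over 10 points in DMSO and added at 120 nL per well, act on Ba/F3 EGFR-mutant cells for 72 h. Seeding is 800 (exon 19del, FQEA), 600 (L858R/C797S) or 400 (L858R) cells/well. CTG luminescence is fitted with a four-parameter logistic curve to give IC50.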

EGFR (CUTO14 cells) = EGFR (CUTO14 cells) (Homo sapiens, UniProt P00533); assay: Inhibitor activity on EGFR phosphorylation (pEGFR AlphaLISA, 2 h), CUTO14 cells
How it was run: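 Cellular EGFR autophosphorylation assay. IL3-independent Ba/F3 transductants or CUTO14 cells are incubated with serially diluted compound (3-fold, 10 points) for 2 h, then lysed and pEGFR quantified by AlphaLISA.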

[3] = target: T2, EGFR L858R/C797S (Ba/F3 cells) (Homo sapiens, UniProt P00533, C797S/L858R); assay: Inhibitor activity on EGFR phosphorylation (pEGFR AlphaLISA, 2 h), Ba/F3 EGFR L858R/C797S
T2 construct: expressed in transfected cells; host or cells: Ba/F3 (murine pro-B cells), retroviral transduction, puromycin selection, IL3-independent pool
Excerpt: as §1, §2, §3, §4, §5, §6, §7, §8, §9, §10, §11, §12, §13, §14, §15

[4] = target: T3, EGFR exon 20 NPG Ins D770_N771 (Ba/F3 cells) (Homo sapiens, UniProt P00533, INS770NPG); assay: Inhibitor activity on EGFR-dependent cell growth (CellTiter-Glo, 72 h), Ba/F3 EGFR exon 20 NPG Ins; details: read-out: BaF3 NPG IC50
T3 construct: expressed in transfected cells; host or cells: Ba/F3 (murine pro-B cells), retroviral transduction, puromycin selection, IL3-independent pool
T3 sequence (P00533 with tags, fused parts or gaps INS770NPG): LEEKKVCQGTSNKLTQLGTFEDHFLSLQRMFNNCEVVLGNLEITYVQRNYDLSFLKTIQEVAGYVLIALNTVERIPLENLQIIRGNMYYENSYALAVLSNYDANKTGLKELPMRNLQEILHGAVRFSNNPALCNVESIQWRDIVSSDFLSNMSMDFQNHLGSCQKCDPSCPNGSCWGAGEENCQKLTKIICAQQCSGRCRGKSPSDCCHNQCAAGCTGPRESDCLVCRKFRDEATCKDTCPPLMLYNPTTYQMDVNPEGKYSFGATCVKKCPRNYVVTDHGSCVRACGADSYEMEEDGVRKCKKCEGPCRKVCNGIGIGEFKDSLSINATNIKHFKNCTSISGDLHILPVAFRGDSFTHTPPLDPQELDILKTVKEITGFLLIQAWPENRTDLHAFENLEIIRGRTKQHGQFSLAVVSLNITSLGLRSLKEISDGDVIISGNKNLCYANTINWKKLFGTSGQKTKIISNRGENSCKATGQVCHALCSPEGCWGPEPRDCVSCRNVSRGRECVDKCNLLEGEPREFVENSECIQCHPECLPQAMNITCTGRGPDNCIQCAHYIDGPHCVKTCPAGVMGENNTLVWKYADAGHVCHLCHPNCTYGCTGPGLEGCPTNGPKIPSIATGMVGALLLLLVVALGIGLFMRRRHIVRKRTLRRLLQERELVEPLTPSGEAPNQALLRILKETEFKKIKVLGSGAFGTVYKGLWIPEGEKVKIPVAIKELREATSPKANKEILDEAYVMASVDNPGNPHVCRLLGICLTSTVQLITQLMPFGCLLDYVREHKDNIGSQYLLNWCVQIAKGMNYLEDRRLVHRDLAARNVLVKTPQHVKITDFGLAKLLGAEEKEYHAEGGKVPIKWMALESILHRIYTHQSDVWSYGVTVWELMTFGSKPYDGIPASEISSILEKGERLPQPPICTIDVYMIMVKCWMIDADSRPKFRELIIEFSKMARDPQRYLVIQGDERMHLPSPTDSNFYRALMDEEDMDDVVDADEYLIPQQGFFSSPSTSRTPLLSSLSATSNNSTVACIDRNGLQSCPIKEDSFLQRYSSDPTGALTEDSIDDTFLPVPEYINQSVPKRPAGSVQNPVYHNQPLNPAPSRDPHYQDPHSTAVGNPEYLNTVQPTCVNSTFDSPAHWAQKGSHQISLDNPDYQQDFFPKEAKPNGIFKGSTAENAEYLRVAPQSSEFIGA
How it was run: (§17)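 IC50s derive from a sigmoidal dose–response fit of CellTiter-Glo signal. The signal was normalised between […]-treated cells and cell-free medium. Ba/F3 mutant-EGFR cells, seeded at 400–800/well depending on the line, had 72 h of exposure to a 10-point, 3-fold compound series.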

[5] = target: T2, EGFR L858R/C797S (Ba/F3 cells); assay: Inhibitor activity on EGFR-dependent cell growth (CellTiter-Glo, 72 h), Ba/F3 EGFR L858R/C797S; details: read-out: BaF3 L858R/C797S IC50
Excerpt: Example A. Inhibitor Activity on EGFR-Dependent Cell Growth
Cell lines are generated by transducing Ba/F3 cells with retroviruses containing vectors with EGFR WT, EGFR L858R, EGFR exon 19del, EGFR L858R/C797S, EGFR exon 20 NPG Ins D770_N771, EGFR exon 20 ASV Ins V769_D770, EGFR exon 20 SVD Ins D770_N771, or EGFR exon 20 FQEA Ins A763_V764 genes and a puromycin selection marker. Transduced cells are selected with puromycin for 7 days and are then be transferred into culture media without Interleukin 3 (IL3). EGFR WT cells are maintained with supplemental EGF. Surviving cells are confirmed to express EGFR by Western blot and maintained as a pool. The IC50 date were included in Table 6 and Table 7.
as §3
1.2 Cells are diluted with culture medium to the desired density and 40 μL of cell suspension is added into each well of 384-well cell culture plate and the seeding density is 800 (FQEA, exon 19del), 600 (WT, NPG, L858R/C797S), or 400 (ASV, SVD, L858R) cells/well.
as §5, §6, §7
2.3 Transfer 120 nL of diluted compound from compound source plate into the cell plate.
2.4 After compound treatment for 72 hours, perform CTG detection for compound treatment plates as described in “Detection” section.
3.1 Plates are removed from incubators and equilibrated at room temperature for 15 minutes.
3.2 Thaw the CellTiter Glo reagents and allow to equilibrate to room temperature before the experiment.
3.3 Add 40 μL of CellTiter-Glo reagent into each well (at 1:1 to culture medium). Then place the plates at room temperature for 30 min followed by reading on EnVision.
4.1 Inhibition activity is calculated following the formula below:
% Inhibition=100×(LumHC−LumSample)/(LumHC−LumLC) • where HC is obtained from cells treated with 0.1% DMSO only; and LC is obtained from culture medium only.
4.2 2. Calculate the IC50 by fitting the Curve using Xlfit (v5.3.1.3), equation 201.
Y=Bottom+(Top−Bottom)/(1+10^((Log IC50−X)*HillSlope))

[6] = target: T4, EGFR exon 19del (Ba/F3 cells) (Homo sapiens, UniProt P00533); assay: Inhibitor activity on EGFR phosphorylation (pEGFR AlphaLISA, 2 h), Ba/F3 EGFR exon 19del; details: read-out: Del19 IC50 (pEGFR)
Excerpt: as §1, §2, §3, §4, §5, §6, §7, §8, §9, §10, §11, §12, §13, §14, §15

EGFR WT (Ba/F3 cells) = target: T5, EGFR WT (Ba/F3 cells) (Homo sapiens, UniProt P00533); assay: Inhibitor activity on EGFR-dependent cell growth (CellTiter-Glo, 72 h), Ba/F3 EGFR WT; details: read-out: BaF3 WT IC50
T5 construct: expressed in transfected cells; host or cells: Ba/F3 (murine pro-B cells), retroviral transduction, puromycin selection, maintained with EGF
How it was run: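 This growth assay used Ba/F3 cells that depend on wild-type EGFR and are kept in EGF without IL3. Compounds were made up as 10 mM DMSO stocks and diluted 3-fold over 10 points. 120 nL went onto 600 cells/well. After 72 hours, 40 μL CellTiter-Glo was added and luminescence read on EnVision after 30 min.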

[7] = target: T4, EGFR exon 19del (Ba/F3 cells); assay: Inhibitor activity on EGFR-dependent cell growth (CellTiter-Glo, 72 h), Ba/F3 EGFR exon 19del; details: Ba/F3 EGFR exon 19del cell growth, read-out: BaF3 Del19 IC50
How it was run: as §16

[8] = target: T6, EGFR exon 20 FQEA Ins A763_V764 (Ba/F3 cells) (Homo sapiens, UniProt P00533, INS763FQEA); assay: Inhibitor activity on EGFR-dependent cell growth (CellTiter-Glo, 72 h), Ba/F3 EGFR exon 20 FQEA Ins; details: read-out: BaF3 FQEA IC50
T6 construct: expressed in transfected cells; host or cells: Ba/F3 (murine pro-B cells), retroviral transduction, puromycin selection, IL3-independent pool
T6 sequence (P00533 with tags, fused parts or gaps INS763FQEA): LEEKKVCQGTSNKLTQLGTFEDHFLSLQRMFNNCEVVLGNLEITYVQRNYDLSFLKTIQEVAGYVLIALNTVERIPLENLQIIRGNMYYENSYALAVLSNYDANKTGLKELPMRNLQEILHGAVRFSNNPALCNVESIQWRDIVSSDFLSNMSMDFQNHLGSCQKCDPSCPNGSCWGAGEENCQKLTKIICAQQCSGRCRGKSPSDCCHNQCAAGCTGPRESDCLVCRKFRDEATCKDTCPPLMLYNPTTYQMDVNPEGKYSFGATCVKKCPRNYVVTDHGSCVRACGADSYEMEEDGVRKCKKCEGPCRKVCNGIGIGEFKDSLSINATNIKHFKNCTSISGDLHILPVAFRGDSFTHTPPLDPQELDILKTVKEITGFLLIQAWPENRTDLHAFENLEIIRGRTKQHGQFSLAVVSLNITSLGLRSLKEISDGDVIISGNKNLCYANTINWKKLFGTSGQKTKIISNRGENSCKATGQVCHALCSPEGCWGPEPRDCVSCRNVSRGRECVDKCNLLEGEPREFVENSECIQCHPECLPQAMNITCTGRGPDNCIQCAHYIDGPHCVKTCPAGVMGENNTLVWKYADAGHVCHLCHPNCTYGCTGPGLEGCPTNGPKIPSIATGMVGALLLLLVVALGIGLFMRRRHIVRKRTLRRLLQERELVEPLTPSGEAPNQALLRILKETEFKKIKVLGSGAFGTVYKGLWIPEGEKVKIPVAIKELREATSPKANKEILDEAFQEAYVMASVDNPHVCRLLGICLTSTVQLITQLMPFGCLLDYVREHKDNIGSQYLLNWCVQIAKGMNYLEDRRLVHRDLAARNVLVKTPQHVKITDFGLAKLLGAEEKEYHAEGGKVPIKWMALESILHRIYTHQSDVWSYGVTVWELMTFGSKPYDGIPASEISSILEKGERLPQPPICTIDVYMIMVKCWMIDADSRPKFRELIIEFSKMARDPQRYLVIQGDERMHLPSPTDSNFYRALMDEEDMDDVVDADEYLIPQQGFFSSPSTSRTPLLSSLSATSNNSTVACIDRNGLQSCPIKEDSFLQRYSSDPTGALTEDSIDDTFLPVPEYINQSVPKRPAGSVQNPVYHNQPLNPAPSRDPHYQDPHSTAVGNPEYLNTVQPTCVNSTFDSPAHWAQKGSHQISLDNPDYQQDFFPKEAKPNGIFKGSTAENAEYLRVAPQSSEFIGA
How it was run: as §16

[9] = target: T7, EGFR exon 20 SVD Ins D770_N771 (Ba/F3 cells) (Homo sapiens, UniProt P00533, INS770SVD); assay: Inhibitor activity on EGFR-dependent cell growth (CellTiter-Glo, 72 h), Ba/F3 EGFR exon 20 SVD Ins; details: read-out: BaF3 SVD IC50
T7 construct: expressed in transfected cells; host or cells: Ba/F3 (murine pro-B cells), retroviral transduction, puromycin selection, IL3-independent pool
T7 sequence (P00533 with tags, fused parts or gaps INS770SVD): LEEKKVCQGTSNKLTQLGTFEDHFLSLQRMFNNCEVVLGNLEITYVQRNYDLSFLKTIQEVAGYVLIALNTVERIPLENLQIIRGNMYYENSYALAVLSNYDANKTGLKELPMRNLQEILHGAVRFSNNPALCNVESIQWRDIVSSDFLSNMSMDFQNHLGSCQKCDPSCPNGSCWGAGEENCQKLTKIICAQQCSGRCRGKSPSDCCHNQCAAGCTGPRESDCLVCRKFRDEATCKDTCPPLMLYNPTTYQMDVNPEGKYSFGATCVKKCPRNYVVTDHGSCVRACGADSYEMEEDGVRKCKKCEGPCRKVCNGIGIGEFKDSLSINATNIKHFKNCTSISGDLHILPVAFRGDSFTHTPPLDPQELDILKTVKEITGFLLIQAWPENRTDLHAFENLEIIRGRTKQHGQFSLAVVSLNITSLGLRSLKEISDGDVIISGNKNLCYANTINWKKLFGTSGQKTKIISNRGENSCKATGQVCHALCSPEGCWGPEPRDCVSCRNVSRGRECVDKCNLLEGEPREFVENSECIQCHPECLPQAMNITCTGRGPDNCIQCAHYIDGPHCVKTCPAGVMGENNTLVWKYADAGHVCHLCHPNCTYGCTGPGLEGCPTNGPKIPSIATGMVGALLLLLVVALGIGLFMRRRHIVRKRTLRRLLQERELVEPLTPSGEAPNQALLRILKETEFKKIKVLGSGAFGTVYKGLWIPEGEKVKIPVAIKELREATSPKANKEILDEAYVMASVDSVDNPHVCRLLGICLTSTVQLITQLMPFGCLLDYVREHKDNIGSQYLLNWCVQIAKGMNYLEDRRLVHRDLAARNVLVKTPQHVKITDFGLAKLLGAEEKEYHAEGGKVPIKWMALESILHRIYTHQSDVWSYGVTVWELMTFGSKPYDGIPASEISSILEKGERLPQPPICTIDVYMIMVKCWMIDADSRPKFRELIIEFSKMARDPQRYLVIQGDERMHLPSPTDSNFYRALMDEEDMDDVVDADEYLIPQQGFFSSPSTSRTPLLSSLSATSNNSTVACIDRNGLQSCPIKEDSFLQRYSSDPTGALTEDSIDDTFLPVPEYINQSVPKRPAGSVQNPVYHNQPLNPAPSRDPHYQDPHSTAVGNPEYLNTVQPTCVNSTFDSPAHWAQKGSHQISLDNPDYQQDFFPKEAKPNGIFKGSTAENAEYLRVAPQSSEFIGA
How it was run: as §17

[10] = target: T8, EGFR exon 20 ASV Ins V769_D770 (Ba/F3 cells) (Homo sapiens, UniProt P00533, INS769ASV); assay: Inhibitor activity on EGFR-dependent cell growth (CellTiter-Glo, 72 h), Ba/F3 EGFR exon 20 ASV Ins; details: read-out: BaF3 ASV IC50
T8 construct: expressed in transfected cells; host or cells: Ba/F3 (murine pro-B cells), retroviral transduction, puromycin selection, IL3-independent pool
How it was run: as §17

IC50 (EGFR L858R (Ba/F3 cells) [1]) [nM]	IC50 (EGFR L858R (Ba/F3 cells) [2]) [nM]	IC50 (EGFR (CUTO14 cells)) [nM]	IC50 [3] [nM]	IC50 [4] [nM]	IC50 [5] [nM]	IC50 [6] [nM]	IC50 (EGFR WT (Ba/F3 cells)) [nM]	IC50 [7] [nM]	IC50 [8] [nM]	IC50 [9] [nM]	IC50 [10] [nM]	SMILES
< 100	< 100	< 100	< 100	< 100	< 100	< 100	100 to 1000	< 100	–	–	–	COc1c(Cl)cccc1Nc1c(-c2ccncn2)[nH]c2c1C(=O)NCC2C[C@H]1COCCO1 (single isomer, unassigned) [Compound 527, (7R*)-3-[(3-chloro-2-methoxyphenyl)amino]-7-[(2S)-1,4-dioxan-2-ylmethyl]-2-(pyrimidin-4-yl)-1H,5H,6H,7H-pyrrolo[3,2-c]pyridin-4-one]
< 100	< 100	–	< 100	< 100	< 100	< 100	100 to 1000	< 100	< 100	–	–	COc1c(Cl)cccc1Nc1c(-c2ccncc2F)[nH]c2c1C(=O)NC[C@H]2CC1COCCO1 (stereo in doubt) [Compound 480, (7R)-3-[(3-chloro-2-methoxyphenyl)amino]-7-[(2R)-1,4-dioxan-2-ylmethyl]-2-(3-fluoropyridin-4-yl)-1H,5H,6H,7H-pyrrolo[3,2-c]pyridin-4-one]
< 100	< 100	< 100	< 100	< 100	< 100	< 100	100 to 1000	< 100	< 100	–	–	COc1c(Cl)cccc1Nc1c(-c2ccncn2)[nH]c2c1C(=O)NC[C@H]2C[C@@H]1COCCO1 [Compound 568, (7R)-3-[(3-chloro-2-methoxyphenyl)amino]-7-[(2R)-1,4-dioxan-2-ylmethyl]-2-(pyrimidin-4-yl)-1H,5H,6H,7H-pyrrolo[3,2-c]pyridin-4-one]
< 100	< 100	–	< 100	< 100	< 100	< 100	< 100	< 100	< 100	< 100	< 100	COc1c(Cl)cccc1Nc1c(-c2ccnc3ccc(OC4(C)COC4)nc23)[nH]c2c1C(=O)NCC2 [Compound 787, 3-[(3-chloro-2-methoxyphenyl)amino]-2-[6-[(3-methyloxetan-3-yl)oxy]-1,5-naphthyridin-4-yl]-1H,5H,6H,7H-pyrrolo[3,2-c] pyridin-4-one]
< 100	< 100	–	< 100	< 100	< 100	< 100	< 100	< 100	< 100	< 100	< 100	COc1c(F)cccc1Nc1c(-c2ccnc3ccc(OC4(C)COC4)nc23)[nH]c2c1C(=O)NCC2 [Compound 788, 3-[(3-fluoro-2-methoxyphenyl)amino]-2-[6-[(3-methyloxetan-3-yl)oxy]-1,5-naphthyridin-4-yl]-1H,5H,6H,7H-pyrrolo[3,2-c]pyridin-4-one]
< 100	< 100	–	< 100	< 100	< 100	< 100	100 to 1000	< 100	< 100	< 100	< 100	COc1c(Cl)cccc1Nc1c(-c2ccnc3ccc(C)nc23)[nH]c2c1C(=O)NCC2 [compound 749, 3-[(3-chloro-2-methoxyphenyl)amino]-2-(6-methyl-1,5-naphthyridin-4-yl)-1H,5H,6H,7H-pyrrolo[3,2-c]pyridin-4-one]
< 100	< 100	–	< 100	< 100	< 100	< 100	100 to 1000	< 100	< 100	< 100	< 100	COc1c(Cl)cccc1Nc1c(-c2ccncc2F)[nH]c2c1C(=O)NC[C@]21CCN(CC(F)F)C1 [compound 821]
< 100	< 100	–	< 100	< 100	< 100	< 100	< 100	< 100	< 100	< 100	< 100	CCOc1ncc2nccc(-c3[nH]c4c(c3Nc3cccc(Cl)c3OC)C(=O)NCC4)c2n1 [compound 827, 3-[(3-chloro-2-methoxyphenyl)amino]-2-{2-ethoxypyrido[3,2-d]pyrimidin-8-yl}-1H,5H,6H,7H-pyrrolo[3,2-c]pyridin-4-one]
